This is an account of results in ChEMBL document CHEMBL4339212, “Novel 7-formyl-naphthyridyl-ureas derivatives as potential selective FGFR4 inhibitors: Design, synthesis, and biological activity studies” (Bioorg Med Chem, 2019).

Some results are limits rather than exact numbers.

The subject of series [1] is Hep 3B2. In words: cells. The following applies: Homo sapiens, Hep3B, 72 h.
Series [2] relates to Huh-7. Kind of series: cells. As to conditions: Homo sapiens, Huh-7, 72 h.
Series [3] has as its target Fibroblast growth factor receptor 1 (Homo sapiens, UniProt P11362). In words: Inhibition of FGFR1 (unknown origin) incubated for 60 mins by caliper microfluidic mobility shift technology based assay.
The next series deals with SK-HEP1. Kind of series: Antiproliferative activity against human SKHEP1 cells without FGFR4 gene amplification assessed as inhibition of cell proliferation incubated for 72 hrs by CellTiter-Glo method. It counts as functional, cell-based. As to conditions: SK-HEP1, 72 h. On the technique in general: In ATP-based viability assays light output follows the ATP content of the culture.

Series [4] is described as follows: AUC in Sprague-Dawley rat at 5 mg/kg, ig measured after 5 mins to 24 hrs by LC-MS analysis. As to conditions: in vivo, po. The format is ADME, organism-based. The arrangement: dose 5 mg/kg, time 0.083-24 hr, route […].
Series [5] concerns Hep 3B2. In words: Antitumor activity against human Hep3B cells xenografted in nude BALB/c mouse assessed as inhibition of tumor growth at 10 mg/kg bid for 14 days and measured twice per week relative to untreated control. The format is functional. The following applies: 336 h, read-out: TGI. (In xenograft studies the graft and the host belong to different species.)
For series [6], the system named is Huh-7. In words: Antitumor activity against human HuH7 cells xenografted in nude BALB/c mouse assessed as inhibition of tumor growth at 30 mg/kg bid for 14 days and measured twice per week relative to untreated control. As to conditions: Huh-7, 336 h, read-out: TGI. The format is functional.
A short description of series [7]: Mean residence time in Sprague-Dawley rat at 5 mg/kg, ig measured after 5 mins to 24 hrs by LC-MS analysis. As to conditions: in vivo, po. The format is ADME, organism-based.
Series [8] in a line: Cmax in Sprague-Dawley rat at 5 mg/kg, ig measured after 5 mins to 24 hrs by LC-MS analysis. The format is ADME, organism-based. Details: dose 5 mg/kg, route […]. As to conditions: in vivo, po.
Series [9] can be described thus: Half life in Sprague-Dawley rat at 5 mg/kg, ig measured after 5 mins to 24 hrs by LC-MS analysis. The format is ADME, organism-based. The following applies: in vivo, po.

Chain of Fibroblast growth factor receptor 1 (P11362 whole entry): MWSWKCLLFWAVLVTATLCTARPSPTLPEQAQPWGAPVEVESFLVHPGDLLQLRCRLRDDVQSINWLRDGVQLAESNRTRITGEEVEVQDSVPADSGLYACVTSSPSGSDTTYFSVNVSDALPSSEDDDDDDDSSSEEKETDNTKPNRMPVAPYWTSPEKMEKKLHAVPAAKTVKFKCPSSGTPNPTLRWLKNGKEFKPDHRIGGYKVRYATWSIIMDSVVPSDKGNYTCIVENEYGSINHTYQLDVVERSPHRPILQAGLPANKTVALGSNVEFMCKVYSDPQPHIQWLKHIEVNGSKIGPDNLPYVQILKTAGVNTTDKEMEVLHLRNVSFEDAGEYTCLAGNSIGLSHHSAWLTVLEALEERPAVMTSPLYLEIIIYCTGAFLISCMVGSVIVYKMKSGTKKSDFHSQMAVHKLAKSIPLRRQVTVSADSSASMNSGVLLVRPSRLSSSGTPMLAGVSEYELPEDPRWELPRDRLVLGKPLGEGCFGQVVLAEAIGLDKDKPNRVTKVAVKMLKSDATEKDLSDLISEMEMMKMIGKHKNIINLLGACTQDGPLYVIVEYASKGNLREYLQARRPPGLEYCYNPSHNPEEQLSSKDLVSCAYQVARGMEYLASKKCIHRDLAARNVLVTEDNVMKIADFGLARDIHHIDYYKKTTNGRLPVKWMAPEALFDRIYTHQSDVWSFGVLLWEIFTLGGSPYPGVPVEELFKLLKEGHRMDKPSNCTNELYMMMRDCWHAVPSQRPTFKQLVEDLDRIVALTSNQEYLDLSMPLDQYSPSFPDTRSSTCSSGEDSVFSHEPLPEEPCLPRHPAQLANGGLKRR

For the molecule `COC[C@@H](C)Oc1cc(NC(=O)N2CCCc3cc(CN4CCOCC4=O)c(C=O)nc32)ncc1C#N`, the IC50 (as a rule, the concentration that gives 50% inhibition) in the series on Hep 3B2 [1] was 2.9 nM; in the series on Huh-7 [2], 7.8 nM; in [3], > 10000 nM; with SK-HEP1, > 10000 nM.

`CO[C@@H]1CCN(c2cc(NC(=O)N3CCCc4cc(CN5CCOC5=O)c(C=O)nc43)ncc2C#N)C1`: the half-maximal inhibitory concentration (IC50) in the series on Hep 3B2 [1] was 9.9 nM; in the series on Huh-7 [2], 10.2 nM; in series [3] it was > 10000 nM; in the series on SK-HEP1 it was > 10000 nM.

`N#Cc1cnc(NC(=O)N2CCCc3cc(CN4CCOCC4=O)c(C=O)nc32)cc1S[C@@H]1CCOC1`: in [4], the AUC (commonly concentration integrated over time) came to 6780 ng·h/mL. Further, the IC50 in the series with Hep 3B2 [1] is 22.7 nM; in the series on Huh-7 [2], 50.1 nM; in series [3], > 10000 nM; in the series on SK-HEP1, > 10000 nM.

As for `COc1ccccc1Oc1cc(NC(=O)N2CCCc3cc(CN4CCOCC4=O)c(C=O)nc32)ncc1C#N`, the IC50 with Hep 3B2 [1] is 46 nM; in the series with Huh-7 [2] it was 69 nM; in series [3] it was > 10000 nM; in the series on SK-HEP1, > 10000 nM.

As to `CO[C@H]1CCOC[C@@H]1Oc1cc(NC(=O)N2CCCc3cc(CN4CCOCC4=O)c(C=O)nc32)ncc1C#N`, the concentration for half-maximal inhibition (IC50) is 10.9 nM with Hep 3B2 [1], 40.8 nM in the series with Huh-7 [2], > 10000 nM in [3] and > 10000 nM in the series on SK-HEP1.

As to `COC[C@@H]1CCCN1c1cc(NC(=O)N2CCCc3cc(CN4CCOCC4=O)c(C=O)nc32)ncc1C#N`, the IC50 in the series on Hep 3B2 [1] was 22.9 nM; in the series on Huh-7 [2], 65.3 nM; in [3], > 10000 nM; with SK-HEP1, > 10000 nM.

Consider `N#Cc1cnc(NC(=O)N2CCCc3cc(CN4CCCCOC4=O)c(C=O)nc32)cc1N[C@H]1CCOC1`, for which the IC50 in the series with Hep 3B2 [1] is 3.7 nM; with Huh-7 [2], 7.2 nM; in series [3], > 10000 nM; in the series on SK-HEP1 it was > 10000 nM.

Consider `COCCNc1cc(NC(=O)N2CCCc3cc(CN4CC[C@@H](OC)C4=O)c(C=O)nc32)ncc1C#N`, for which the area under the curve (AUC) in series [4] was determined as 12300 ng·h/mL. Besides, the IC50 in the series with Hep 3B2 [1] is 1.9 nM; in the series on Huh-7 [2], 8.3 nM; in series [3] it was > 10000 nM; in the series with SK-HEP1 it was > 10000 nM.

For the molecule `N#Cc1cnc(NC(=O)N2CCCc3cc(CN4CCOCC4=O)c(C=O)nc32)cc1S[C@H]1CCOC1`, the AUC in [4] was determined as 1950 ng·h/mL. Besides, the IC50 in the series with Hep 3B2 [1] is 14.5 nM; in the series on Huh-7 [2] it was 36.1 nM; in series [3] it was > 10000 nM; in the series with SK-HEP1, > 10000 nM.

For `CO[C@@H]1CCN(c2cc(NC(=O)N3CCCc4cc(CN5C(=O)OC[C@@H]5C)c(C=O)nc43)ncc2C#N)C1`, the IC50 is 13.3 nM with Hep 3B2 [1], 11.8 nM in the series on Huh-7 [2], > 10000 nM in series [3] and > 10000 nM with SK-HEP1.

In the case of `COCCSc1cc(NC(=O)N2CCCc3cc(CN4CCOCC4=O)c(C=O)nc32)ncc1C#N`, the IC50 in the series with Hep 3B2 [1] was 20.8 nM; in the series with Huh-7 [2] it was 32.2 nM; in series [3], > 10000 nM; with SK-HEP1 it was > 10000 nM.

For `CO[C@H]1CCN(c2cc(NC(=O)N3CCCc4cc(CN5CCOC5=O)c(C=O)nc43)ncc2C#N)C1`, the IC50 in the series on Hep 3B2 [1] is 38.7 nM; in the series on Huh-7 [2], 29.6 nM; in [3] it was > 10000 nM; with SK-HEP1 it was > 10000 nM.

Turning to `CO[C@@H]1CCC[C@H]1Nc1cc(NC(=O)N2CCCc3cc(CN4CCOCC4=O)c(C=O)nc32)ncc1C#N`, the IC50 in the series with Hep 3B2 [1] is 1 nM; in the series with Huh-7 [2] it was 2.7 nM; in series [3], > 10000 nM; in the series with SK-HEP1, > 10000 nM.

As to `COCCOc1cc(NC(=O)N2CCCc3cc(CN4CCOCC4=O)c(C=O)nc32)ncc1C#N`, the IC50 with Hep 3B2 [1] is 27.7 nM; in the series on Huh-7 [2], 51.8 nM; in series [3], > 10000 nM; with SK-HEP1 it was > 10000 nM.

Consider `COc1ccncc1Nc1cc(NC(=O)N2CCCc3cc(CN4CCOCC4=O)c(C=O)nc32)ncc1C#N`, for which the IC50 in the series on Hep 3B2 [1] is 69 nM; with Huh-7 [2], 20.7 nM; in [3] it was > 10000 nM; in the series on SK-HEP1 it was > 10000 nM.

For the molecule `CO[C@@H]1CCN(Cc2cc3c(nc2C=O)N(C(=O)Nc2cc(N[C@@H]4CCOC4)c(C#N)cn2)CCC3)C1=O`, the IC50 with Hep 3B2 [1] was 1.8 nM; with Huh-7 [2] it was 5.4 nM; in [3], > 10000 nM; in the series with SK-HEP1 it was > 10000 nM.

For `COC[C@H](C)Nc1cc(NC(=O)N2CCCc3cc(CN4CC[C@H](OC)C4=O)c(C=O)nc32)ncc1C#N`, the IC50 in the series on Hep 3B2 [1] was 13.6 nM; with Huh-7 [2], 40.5 nM; in [3], > 10000 nM; in the series on SK-HEP1, > 10000 nM.

In the case of `N#Cc1cnc(NC(=O)N2CCCc3cc(CN4CCCCOC4=O)c(C=O)nc32)cc1N[C@@H]1CCOC1`, the IC50 in the series with Hep 3B2 [1] was 2.3 nM; in the series with Huh-7 [2], 4.9 nM; in series [3] it was > 10000 nM; in the series with SK-HEP1, > 10000 nM.

Take `COC[C@@H](C)Oc1cc(NC(=O)N2CCCc3cc(CN4CCCCOC4=O)c(C=O)nc32)ncc1C#N`: the IC50 was 2.2 nM with Hep 3B2 [1], 4.6 nM in the series on Huh-7 [2], > 10000 nM in series [3] and > 10000 nM with SK-HEP1.

For `COCCNc1cc(NC(=O)N2CCCc3cc(CN4CCOCC4=O)c(C=O)nc32)ncc1C#N`, the IC50 with Hep 3B2 [1] was 8.9 nM; with Huh-7 [2], 17.3 nM; in series [3] it was > 10000 nM; in the series on SK-HEP1, > 10000 nM.

Consider `CO[C@H]1CCN(c2cc(NC(=O)N3CCCc4cc(CN5C(=O)OC[C@@H]5C)c(C=O)nc43)ncc2C#N)C1`, for which the IC50 in the series on Hep 3B2 [1] was 39.3 nM; in the series on Huh-7 [2], 34.6 nM; in series [3], > 10000 nM; in the series on SK-HEP1, > 10000 nM.

For the molecule `COCCNc1cc(NC(=O)N2CCCc3cc(CN4CCN(C)CC4=O)c(C=O)nc32)ncc1C#N` [FGF401], the inhibition in vivo at 10 mg/kg in the series with Hep 3B2 [5] came out at 85.9%. Besides, the inhibition in vivo at 30 mg/kg in the series with Huh-7 [6] was determined as 52.5%. The IC50 was 8.8 nM in the series on Hep 3B2 [1] and 16.3 nM with Huh-7 [2].

With `CN(C)C1CCN(c2cc(NC(=O)N3CCCc4cc(CN5CCOCC5=O)c(C=O)nc43)ncc2C#N)C1` (stereo not drawn), the IC50 in the series on Hep 3B2 [1] was 93.8 nM; with Huh-7 [2], 297 nM; in [3], > 10000 nM; in the series with SK-HEP1, > 10000 nM.

On to `COCCNc1cc(NC(=O)N2CCCc3cc(CN4CC[C@H](OC)C4=O)c(C=O)nc32)ncc1C#N`, for which, in series [4], the AUC is 11300 ng·h/mL. The IC50 in the series with Hep 3B2 [1] is 2.3 nM; in the series on Huh-7 [2] it was 9 nM; in series [3], > 10000 nM; with SK-HEP1, > 10000 nM.

On to `CO[C@H]1CCN(c2cc(NC(=O)N3CCCc4cc(CN5CCOCC5=O)c(C=O)nc43)ncc2C#N)C1`, for which the AUC in [4] came out at 14700 ng·h/mL. Further, the mean residence time MRT – broadly, the average time that molecules of a dose stay in the body – in series [7] amounted to 2.6 h. Besides, the peak level in [8] (Cmax) was 3360 ng/mL. Besides, the IC50 in the series with Hep 3B2 [1] is 24.9 nM; in the series with Huh-7 [2], 27.5 nM; in [3], > 10000 nM; with SK-HEP1 it was > 10000 nM. Moreover, the half-life (as a rule, the time needed for the level to fall by half in the phase considered) in series [9] was 1.2 h.
